Measurements: patent US11717480B2, “Extracellular vesicles and methods and uses thereof” (The Regents of the University of California, priority 2016, dated 2023)

Tests used:
[1] = Biodistribution: drug content of organs 24 hours after treatment; format: in vivo, C57BL/6 mice; conditions: lung, liver, heart, spleen, tumor
Procedure: Turning to FIG. 21C, serum was collected from C57BL/6 mice treated with DOX, DOXIL or DOX-EVs and analyzed for drug content. Concentration of DOX in the serum (n=3) was measured over 12 hours by a series of blood collections and fluorescence quantifications. […] Twenty-four hours after treatment, the mice were sacrificed and their organs were assessed for drug content.
For pharmacokinetics and biodistribution experiments, tumors were established and mice were treated as described above. Tail vein blood collection was completed at the time points indicated and suspended in acidified alcohol. The blood was analyzed for DOX concentration by fluorescence spectroscopy (ex. 485 nm, em. 595 nm). 24 hours post treatment, the mice were sacrificed and the organs were extracted. The organs were cryopulverized and resuspended in acidified alcohol for fluorescence spectroscopy (ex. 485 nm, em. 595 nm) analysis.

EL4 cells = assay: In vitro MTT viability assay of EL4 cells; format: cell-based, mouse; conditions: highest concentrations tested, n=3, one-way ANOVA and Tukey HSD
Procedure: Turning now to FIG. 20. FIG. 20 describes the effect of therapeutic agents delivered by EVs of various embodiments as compared to other forms of drug delivery. […] (See, Immordino, et al., Int. J. Nanomedicine 1, 297-315 (2016), the disclosures being incorporated herein by reference.)
EL4 cells were treated over 24 or 48 hours with DOX, DOXIL, DOX-EVs, or unloaded EVs. […] It is important to note that DOX-loaded EVs would not be expected to outperform free DOX in vitro study since their primary benefits (improved biocompatibility and extended release) are critical factors in an in vivo delivery setting.
In vitro viability studies. EL4 cells were plated at 20,000 cells/well in 100 μL of DMEM with 10% FBS. Cells were incubated for 24 hours or 48 hours with the concentrations of DOX, DOXIL or DOX-EVs described in FIG. 20. An MTT assay was performed and cells were incubated with 1 mg/mL of MTT for 1 hour. The crystals were dissolved in 100 μL of DMSO and the absorbance of each well was characterized at 560 nm.
Turning now to FIG. 20. FIG. 20 describes the effect of therapeutic agents delivered by EVs of as compared to other forms of drug delivery. […] (See, Immordino, et al., Int. J. Nanomedicine 1, 297-315 (2016), the disclosures being incorporated herein by reference.)
EL4 cells were treated over 24 or 48 hours with DOX, DOXIL, DOX-EVs, or unloaded EVs. […]

- Accumulation of drug in organs [1]: tends to accumulate in the lung
SMILES: COc1cccc2c1C(=O)c1c(O)c3c(c(O)c1C2=O)C[C@@](O)(C(=O)CO)C[C@@H]3O[C@H]1C[C@H](N)[C@H](O)[C@H](C)O1 [DOX, doxorubicin]
- Viability of EL4 cells versus controls (EL4 cells): statistically significant (p<0.01) from the controls
